Assay results: patent US9072293B2, “Cyclopropenes and method for applying cyclopropenes to agricultural products or crops” (Erum Biotechnologies Inc., priority 2010, dated 2015)
Several values for one entry are separate records, joined by “and”; a condition that tells them apart may be missing. Equal entries are not always repeated.

Assays:
tomato [1] = test: Experimental Example 2: Efficacy test on tomato using oil based formulation (reddening grade); format: in vivo; set-up: key: an area in which the surface of tomato was colored in pink was 10% or less; an area in which the surface of tomato was completely colored in red was 10 to 40%; 2: an area in which the surface of tomato was completely colored in red was 40 to 70%; 3: an area in which the surface of tomato was completely colored in red was 70% or more and the bottom area remained green; 4: an area in which the surface of tomato was most colored in red and only a part of (0 to 10%) the bottom area remained green; 5: the surface of tomato did not entirely color in green; details: 1.0 mM oil-based formulation, individual tomatoes n=4
Text: (§1) At this time, the tops of tomatoes most early turned red, while the bottoms thereof most lately turned red. For this reason, in order to accurately evaluate the difference in reddening, the coloring evaluated was based on the area of red color, rather than the color of tomatoes. […] Accordingly, the grade level is proportional to the rate at which the tomatoes ripened.
As illustrated in Example 1, in situ, in accordance with the methods of Preparation Examples 15, 16, 17, 18 and 22, five agents (1.0 mmol) such as 1-(2-phenylethyl)cyclopropene, 1-(3-phenylpropyl)cyclopropene, 1-(4-phenylbutyl)cyclopropene, 1-(5-phenylpentyl)cyclopropene and 1-hexylcyclopropene were prepared, 5.0 ml of xylene and 5.0 ml of water were added to the reaction solution, vigorously stirred for 5 minutes and stood. When the mixture was separated into an organic layer (upper layer) and an aqueous layer (lower layer), only the organic layer was collected and the aqueous layer was discarded. […] of hexane was added to the organic layer and homogeneously mixed to prepare a 1.0 mM oil-based formulation.
The tomatoes were screened in the same manner as in Experimental Example 1 and divided into 7 groups (n=4) including a non-treated group, a control group (solvent-treated group) and 5 agent groups. Tomatoes were treated with the previously prepared agent using a household sprayer such that the surface thereof was saturated. The tomatoes were stood at room temperature (25-30° C.) for 3 days and a reddening level thereof was evaluated based on grades of 0 to 5.

tomato [2] = test: Experimental Example 1: Efficacy test on tomato using emulsion (reddening grade); format: in vivo; details: individual tomatoes n=4
Description: In situ, a 1.0 mM 1-octylcyclopropene formulation was prepared using (trans)-1-octyl-1-(methanesulfonyloxy)-2-(trimethylsilyl)cyclopropane of Preparation Example 10 in the same manner as in Example 7. This solution was diluted to 1 to 100 times prior to use, as necessary. Experimental Example 1: Efficacy test on tomato using emulsion 1.0 mM formulations of five agents such as 1-(2-phenylethyl)cyclopropene, 1-(3-phenylpropyl)cyclopropene, 1-(4-phenylbutyl)cyclopropene, 1-(5-phenylpentyl)cyclopropene and 1-hexylcyclopropene were prepared in the same manner as in Example 1, and 1.0 mM and 100 μM solutions were prepared therefrom. Then, the effects of the solutions were compared with non-treated groups and control groups in which a surfactant or a stabilizing agent (sodium dodecylbenzenesulfonate or tristyrenylphenykethoxy)12ethanol) is dissolved.
Tomatoes whose top end began to turn pink were screened, harvested and divided into 12 groups (n=4) in total, i.e., non-treated groups, control groups (surfactant) and agent groups with different concentrations such as 100 μM and 1.0 mM. Tomatoes were treated with the prepared agent formulation using a household sprayer such that the surface thereof was saturated. The tomatoes were stood at room temperature (25-30° C.) for 3 days and a reddening level thereof was evaluated based on grades of 0 to 5.
as §1

[3] = Relative chemical stability of cyclopropenes measured by 1H-NMR; format: physicochemical; details: for Stability (relative chemical stability, based on cyclopropenes having a chain length of 1): 1H-NMR, CDCl3, stored at −20° C. or room temperature, relative to chain length 1
In short: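 Compounds in CDCl3 NMR tubes stored at −20° C. or room temperature and followed by 1H-NMR. Integrals of characteristic 1-alkylcyclopropene peaks (4–6.5 ppm, 1H; 0.8–0.9 ppm, 2H) compared against 1,1,3,3-tetramethylurea internal standard (2.80 ppm); stability expressed relative to chain-length-1 analogue.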

[4] = Day 0, room temperature (25-30° C.)
[5] = Day 1, room temperature (25-30° C.)
[6] = Day 2, room temperature (25-30° C.)
[7] = Day 3, room temperature (25-30° C.)
[8] = 100 μM, Day 0, room temperature (25-30° C.)
[9] = 100 μM, Day 1, room temperature (25-30° C.)
[10] = 100 μM, Day 2, room temperature (25-30° C.)
[11] = 100 μM, Day 3, room temperature (25-30° C.)
[12] = 1.0 mM, Day 0, room temperature (25-30° C.)
[13] = 1.0 mM, Day 1, room temperature (25-30° C.)
[14] = 1.0 mM, Day 2, room temperature (25-30° C.)
[15] = 1.0 mM, Day 3, room temperature (25-30° C.)

chemical stability (in words) [3]	Stability (relative chemical stability, based on cyclopropenes having a chain length of 1) [3]	Structure (SMILES)	Tomato results: reddening level (grade 0 to 5) (tomato [1]; [4])	Tomato results: reddening level (grade 0 to 5) (tomato [1]; [5])	Tomato results: reddening level (grade 0 to 5) (tomato [1]; [6])	Tomato results: reddening level (grade 0 to 5) (tomato [1]; [7])	reddening level (grade 0 to 5) (tomato [2]; [8])	reddening level (grade 0 to 5) (tomato [2]; [9])	reddening level (grade 0 to 5) (tomato [2]; [10])	reddening level (grade 0 to 5) (tomato [2]; [11])	reddening level (grade 0 to 5) (tomato [2]; [12])	reddening level (grade 0 to 5) (tomato [2]; [13])	reddening level (grade 0 to 5) (tomato [2]; [14])	reddening level (grade 0 to 5) (tomato [2]; [15])
considerably stable	>10	C1=C(CCc2ccccc2)C1 [(2-Phenylethyl), 1-(2-phenylethyl)cyclopropene]	0 (an area in which the surface of tomato was colored in pink was 10% or less) (2×) and 1 (an area in which the surface of tomato was completely colored in red was 10 to 40%) and 2 (an area in which the surface of tomato was completely colored in red was 40 to 70%)	1 (an area in which the surface of tomato was completely colored in red was 10 to 40%) (2×) and 2 (an area in which the surface of tomato was completely colored in red was 40 to 70%) and 3 (an area in which the surface of tomato was completely colored in red was 70% or more and the bottom area remained green)	2 (an area in which the surface of tomato was completely colored in red was 40 to 70%) (2×) and 4 (2×)	4 (2×) and 5 (2×)	0 (an area in which the surface of tomato was colored in pink was 10% or less) (2×) and 1 (an area in which the surface of tomato was completely colored in red was 10 to 40%) and 2 (an area in which the surface of tomato was completely colored in red was 40 to 70%)	1 (an area in which the surface of tomato was completely colored in red was 10 to 40%) (2×) and 3 (an area in which the surface of tomato was completely colored in red was 70% or more and the bottom area remained green) (2×)	2 (an area in which the surface of tomato was completely colored in red was 40 to 70%) and 3 (an area in which the surface of tomato was completely colored in red was 70% or more and the bottom area remained green) and 4 (2×)	3 (an area in which the surface of tomato was completely colored in red was 70% or more and the bottom area remained green) and 4 and 5 (2×)	0 (an area in which the surface of tomato was colored in pink was 10% or less) (2×) and 1 (an area in which the surface of tomato was completely colored in red was 10 to 40%) and 2 (an area in which the surface of tomato was completely colored in red was 40 to 70%)	1 (an area in which the surface of tomato was completely colored in red was 10 to 40%) (2×) and 2 (an area in which the surface of tomato was completely colored in red was 40 to 70%) and 3 (an area in which the surface of tomato was completely colored in red was 70% or more and the bottom area remained green)	2 (an area in which the surface of tomato was completely colored in red was 40 to 70%) (2×) and 3 (an area in which the surface of tomato was completely colored in red was 70% or more and the bottom area remained green) and 4	3 (an area in which the surface of tomato was completely colored in red was 70% or more and the bottom area remained green) (2×) and 4 and 5
much more stable	>>10	C1=C(CCCc2ccccc2)C1 [(3-Phenylpropyl), 1-(3-phenylpropyl)cyclopropene]	0 (an area in which the surface of tomato was colored in pink was 10% or less) (2×) and 1 (an area in which the surface of tomato was completely colored in red was 10 to 40%) and 2 (an area in which the surface of tomato was completely colored in red was 40 to 70%)	0 (an area in which the surface of tomato was colored in pink was 10% or less) (2×) and 1 (an area in which the surface of tomato was completely colored in red was 10 to 40%) and 2 (an area in which the surface of tomato was completely colored in red was 40 to 70%)	0 (an area in which the surface of tomato was colored in pink was 10% or less) (2×) and 1 (an area in which the surface of tomato was completely colored in red was 10 to 40%) and 3 (an area in which the surface of tomato was completely colored in red was 70% or more and the bottom area remained green)	1 (an area in which the surface of tomato was completely colored in red was 10 to 40%) (2×) and 2 (an area in which the surface of tomato was completely colored in red was 40 to 70%) and 4	0 (an area in which the surface of tomato was colored in pink was 10% or less) (2×) and 1 (an area in which the surface of tomato was completely colored in red was 10 to 40%) and 2 (an area in which the surface of tomato was completely colored in red was 40 to 70%)	1 (an area in which the surface of tomato was completely colored in red was 10 to 40%) (3×) and 2 (an area in which the surface of tomato was completely colored in red was 40 to 70%)	1 (an area in which the surface of tomato was completely colored in red was 10 to 40%) (2×) and 2 (an area in which the surface of tomato was completely colored in red was 40 to 70%) and 3 (an area in which the surface of tomato was completely colored in red was 70% or more and the bottom area remained green)	2 (an area in which the surface of tomato was completely colored in red was 40 to 70%) (2×) and 3 (an area in which the surface of tomato was completely colored in red was 70% or more and the bottom area remained green) and 4	0 (an area in which the surface of tomato was colored in pink was 10% or less) (2×) and 1 (an area in which the surface of tomato was completely colored in red was 10 to 40%) and 2 (an area in which the surface of tomato was completely colored in red was 40 to 70%)	0 (an area in which the surface of tomato was colored in pink was 10% or less) (2×) and 1 (an area in which the surface of tomato was completely colored in red was 10 to 40%) and 2 (an area in which the surface of tomato was completely colored in red was 40 to 70%)	1 (an area in which the surface of tomato was completely colored in red was 10 to 40%) (2×) and 0 (an area in which the surface of tomato was colored in pink was 10% or less) and 3 (an area in which the surface of tomato was completely colored in red was 70% or more and the bottom area remained green)	1 (an area in which the surface of tomato was completely colored in red was 10 to 40%) (2×) and 2 (an area in which the surface of tomato was completely colored in red was 40 to 70%) and 3 (an area in which the surface of tomato was completely colored in red was 70% or more and the bottom area remained green)
